The text below walks through data of patent US7759078B2, “Diagnosis and treatment of cancer” (priority 2003, dated 2010).

For experiment [1], the system named is PN1 expression in PC12 cells. Particulars: cited from earlier work.
The test system of experiment [2] is voltage gated Na+ channel in MAT-LyLu rat prostatic cancer cell line. Put plainly: current recordings of VGSC functional expression in MAT-LyLu cells after 24 h incubation. In kind it is cell-based. On the procedure:
FIG. 9. (A) Current recordings from the MAT-LyLu rat prostatic cancer cell line elicited by depolarising the membrane from a holding potential of −100 mV to 0 mV following 24 h incubation in 0% FBS, 100 ng/ml EGF and 1 μM AG1478. […] (B) Histograms showing mean peak Na^+ current density ± standard error following 24 h incubation in 0% FBS, 100 ng/ml EGF, 1 μM AG1478 and EGF receptor antibody (1 μg/ml). Statistical significance is indicated as **=p<0.01 and ***=p<0.001, respectively.
Epidermal growth factor (EGF) upregulates VGSC functional expression. […] This effect is blocked by co-application of EGF receptor kinase inhibitor (AG1478; Calbiochem, San Diego, Calif., USA). Application of EGF receptor antibody (Oncogene, Cambridge, Mass., USA) also reduces the basal VGSC current implying that the phenomenon occurs endogenously.

In experiment [3] the test system is MAT-LyLu and PC-3 cells. Particulars: cited from earlier work.
In experiment [4] the test system is MAT-LyLu cells. Particulars: cited from earlier work.

Regarding nerve growth factor [NGF], the PN1 expression result in experiment [1] was “upregulates”.
As for `COc1cc2ncnc(Nc3cccc(Cl)c3)c2cc1OC` [AG1478], in experiment [2] (co-application with EGF, 1 μM AG1478, 24 h), the “effect on EGF potentiation of functional VGSC expression” value is on record as “blocked”.
Epidermal growth factor [EGF]: in experiment [2] (24 h incubation, 100 ng/ml EGF), the “VGSC functional expression (peak Na+ current density)” value is “upregulates”.
Regarding `NC1=N[C@H](O)[C@H]2[C@H]3O[C@]4(O)O[C@@H]([C@@H](O)[C@@]2(N1)[C@@H]4O)[C@]3(O)CO` [TTX, tetrodotoxin], in experiment [3], the “cells' invasion in vitro” value is “significantly reduced” and the “reduction of the cells' invasive potential” value is around 30%. The “effect on cell morphology” value in experiment [4] was “retract their processes and become compact”.
